Test results from US20240041828A1, “Combination Therapeutics Comprising Nrf2 Agonists and Antivirals for Treating Viral Infections” (The Regents of the University of California, priority 2022, published 2024).
Entries after “also recorded” stand apart in the source; their conditions may differ. Structures can show the parent of a compound that is named as a salt. Where two headings read alike, the source gives them in different places.

Tests used:
Format in all cases: cell-based
[1] = test system: B.1.617.2 (Delta) SARS-CoV-2 variant; test: microbe, parasite or virus in culture; settings: for IC50: Severe acute respiratory syndrome coronavirus 2, A549
[2] = test system: B.1.617.2 (Delta) SARS-CoV-2 variant
[3] = test system: SARS-coV-2 Omicron variant

| Compound | IC50 [1] [µM] | IC50 compared to comparator drug ([1]; methanesulfonate) | anti-SARS-CoV-2 activity (words, figure legend) ([1]; methanesulfonate) | drug interaction (words, figure legend) ([2]; methanesulfonate) | IC50 compared to comparator drug [3] | better antiviral effect in ALI HAE system compared to Paxlovid ([3]; ALI HAE system) | anti-SARS-CoV-2 activity (words, figure legend) ([3]; methanesulfonate) | IC50 compared to comparator drug [1] | anti-SARS-CoV-2 activity (words, figure legend) [1] | drug interaction (words, figure legend) [2] | anti-SARS-CoV-2 activity (words, figure legend) [3] |
| --- | --- | --- | --- | --- | --- | --- | --- | --- | --- | --- | --- |
| COC1=C(OC)C(=O)C(CCCCCCCCCC[P+](c2ccccc2)(c2ccccc2)c2ccccc2)=C(C)C1=O.CS(=O)(=O)[O-] [Mito-MES, 10-(4,5-dimethoxy-2-methyl-3,6-dioxo-1,4-cyclohexadienyl) decyl triphenylphosphonium methanesulfonate] | 0.144 | higher IC50 compared to molnupiravir | strong anti-SARS-CoV-2 activity in single layer human airway cells that is similar to Paxlovid™; also recorded: strong anti-SARS-CoV-2 activity in single layer human airway cells that is higher than molnupiravir | additive anti-SARS-CoV-2 activity with Paxlovid™; also recorded: additive anti-SARS-CoV-2 activity with molnupiravir | higher than Paxlovid™ IC50 | about 1000 fold | stronger anti-SARS-CoV-2 activity in multilayer human airway cell culture than Paxlovid™; also recorded: stronger anti-SARS-CoV-2 activity in multilayer human airway cell culture than molnupiravir |  |  |  |  |
| CC(C)C(=O)OC[C@H]1O[C@@H](n2ccc(NO)nc2=O)[C@H](O)[C@@H]1O [molnupiravir, Molnupiravir] | 31 |  |  |  |  |  |  |  |  |  |  |
| COC(=O)/C=C/C(=O)OC [DMF, Dimethyl fumarate] | 16.7 |  |  |  | IC50 that was similar to Paxlovid™; also recorded: higher than molnupiravir IC50 |  |  | higher IC50 compared to Paxlovid™; also recorded: higher IC50 compared to molnupiravir | anti-SARS-CoV-2 activity in single layer human airway cells that is lower than Paxlovid™; also recorded: strong anti-SARS-CoV-2 activity in single layer human airway cells that is higher than molnupiravir | additive anti-SARS-CoV-2 activity with Paxlovid™; also recorded: additive anti-SARS-CoV-2 activity with molnupiravir | stronger anti-SARS-CoV-2 activity in multilayer human airway cell culture than molnupiravir |
